How the values were obtained:
C33A cells = experiment: MTT anti-proliferation assay, C33A; format: cell-based, human; conditions: Homo sapiens, C-33-A, 48 h, mean ± SD
Method: (§1) All cell types, at a volume of 200 µL per well, were inoculated in 96-well plates at a density of 2.5 × 10^4 cells / mL and cultured for 24 h in an incubator with 5% CO2 at 37 °C. The old culture medium was replaced with 200 µL of fresh medium per well containing positive compounds, at concentrations of 1, 6.25, 12.5, 25, 50, and 100 μM. After 48 h of culture, 20 µL per well of 5 mg·mL^−1 MTT solution was added. After 4 h of culture, the old solution was discarded, and 150 µL per well of DMSO solution was added. Using an enzyme labeler (Thermo Fisher Scientific, Multiskan GO, Waltham, MA, USA), the plates were shaken for 10 min, OD values were determined at 490 nm, and the inhibition rate was calculated. Non-linear regression fitting of the cell growth rate was carried out using SPSS 23.0, and the IC50 of the compound was calculated. The inhibition rate was calculated using the formula: [(ODempty − ODtest)/(ODempty − ODnegative group)] × 100%, (ODempty blank group absorbance, ODtest absorbance of administration group, ODnegative group without cell culture medium). Each group contained six compound holes, and the experimental results averaged three trials. Complete medium containing only cells was used as the blank control; a complete medium without cells as was used as the negative control; and cisplatin, paclitaxel, and adriamycin were used as the positive controls. The concentration gradient was the same as that used for compounds 3a–3p.

HeLa cells = experiment: MTT anti-proliferation assay, HeLa; format: cell-based, human; conditions: Homo sapiens, 48 h, mean ± SD
Method: as §1, with “3a–3p. […]” for “3a–3p.”

[1] = test system: human cervical epithelial cells H8; experiment: MTT toxicity assay, normal cervical epithelial cells H8; format: cell-based; conditions: Homo sapiens, Epithelial cell, 48 h, mean ± SD
Method: as §1

SiHa cells = experiment: MTT anti-proliferation assay, SiHa; format: cell-based, human; conditions: Homo sapiens, 48 h, mean ± SD
Method: as §1

HeLa/DDP cells = experiment: MTT anti-cisplatin-resistant cervical cancer activity, HeLa/DDP; format: cell-based, human; conditions: 48 h
Method: as §1
To mitigate the detrimental consequences arising from the fixation of resistance reversal agents, concentrations that yielded a tumor cell proliferation rate reduction of less than 10% were selected. Consequently, the inhibitory efficacy of compound 3k against HeLa/DDP cells was assessed in conjunction with cisplatin at concentrations of 0.25, 0.5, and 1 μM. The experimental procedure employed was akin to that elucidated in Section 3.3.2. The impact of verapamil (6 μM) and 3k (0.25, 0.5, and 1 μM) on P-gp expression was ascertained via Western blot experiments, employing the same methodology delineated in Section 3.3.4.

IC50 (HeLa cells) | melting point | IC50 (HeLa/DDP cells; Homo sapiens, HeLa/DDP, MTT, mean ± SD) | SMILES | IC50 (C33A cells) | IC50 [1] | IC50 (SiHa cells) | resistance index (RI) (HeLa/DDP cells; HeLa/DDP versus parental HeLa)
> 100 µM | 129.6 to 130.5 °C |  | COc1cc(OC)c(OC)cc1/C=C(\C)C(=O)c1ccc(Cl)c(Cl)c1 [Compound 3a, (E)-1-(3,4-Dichlorophenyl)-2-methyl-3-(2,4,5-trimethoxyphenyl)prop-2-en-1-one] | 69.9 ± 7.18 µM | > 100 µM | 23.5 ± 4.55 µM | 
43.8 ± 3.68 µM |  |  | COc1cc(/C=C(\C)C(=O)c2ccc(Cl)c(Cl)c2)cc(OC)c1OC [Compound 3b, (E)-1-(3,4-Dichlorophenyl)-2-methyl-3-(3,4,5-trimethoxyphenyl)prop-2-en-1-One] | 57 ± 6.27 µM | 57.7 ± 4.7 µM | 28.4 ± 2.37 µM | 
> 100 µM | 114.1 to 115.5 °C |  | COc1ccc(/C=C(\C)C(=O)c2ccc(Cl)c(Cl)c2)c(OC)c1OC [Compound 3c, (E)-1-(3,4-Dichlorophenyl)-2-methyl-3-(2,3,4-trimethoxyphenyl)prop-2-en-1-one] | 33.9 ± 4.99 µM | > 100 µM | 41.8 ± 5.1 µM | 
97.6 ± 7.61 µM | 67.1 to 67.8 °C |  | COc1cc(OC)c(/C=C(\C)C(=O)c2ccc(Cl)c(Cl)c2)c(OC)c1 [Compound 3d, (E)-1-(3,4-Dichlorophenyl)-2-methyl-3-(2,4,6-trimethoxyphenyl)prop-2-en-1-one] | 63.7 ± 2.59 µM | > 100 µM | > 100 µM | 
> 100 µM | 104.6 to 105.7 °C |  | COc1cc(OC)c(/C=C(\C)C(=O)c2ccc(Cl)cc2Cl)c(OC)c1 [Compound 3e, (E)-1-(2,4-dichlorophenyl)-2-methyl-3-(2,4,6-trimethoxyphenyl)prop-2-en-1-one] | > 100 µM | > 100 µM | > 100 µM | 
> 100 µM | 112.3 to 113.6 °C |  | COc1ccc(/C=C(\C)C(=O)c2ccc(Cl)c(Cl)c2)c(OC)c1 [Compound 3f, (E)-1-(3,4-dichlorophenyl)-3-(2,4-dimethoxyphenyl)-2-methylprop-2-en-1-one] | 23.7 ± 4.07 µM | > 100 µM | > 100 µM | 
56.1 ± 4.58 µM | 134.4 to 135.6 °C |  | COc1cccc(OC)c1/C=C(\C)C(=O)c1ccc(Cl)c(Cl)c1 [Compound 3g, (E)-1-(3,4-dichlorophenyl)-3-(2,6-dimethoxyphenyl)-2-methylprop-2-en-1-one] | 44.8 ± 2.85 µM | > 100 µM | > 100 µM | 
> 100 µM | 157 to 158.1 °C |  | COc1cc(/C=C(\C)C(=O)c2ccc(Cl)c(Cl)c2)cc(OC)c1 [Compound 3h, (E)-1-(3,4-Dichlorophenyl)-3-(3,5-dimethoxyphenyl)-2-methylprop-2-en-1-one] | 54.4 ± 11.5 µM | > 100 µM | > 100 µM | 
> 100 µM | 99.8 to 100.7 °C |  | COc1cccc(/C=C(\C)C(=O)c2ccc(Cl)c(Cl)c2)c1OC [Compound 3i, (E)-1-(3,4-Dichlorophenyl)-3-(2,3-dimethoxyphenyl)-2-methylprop-2-en-1-one] | 30.7 ± 8.84 µM | > 100 µM | > 100 µM | 
> 100 µM |  |  | COc1ccc(OC)c(/C=C(\C)C(=O)c2ccc(Cl)c(Cl)c2)c1 [Compound 3j, (E)-1-(3,4-Dichlorophenyl)-3-(2,5-dimethoxyphenyl)-2-methylprop-2-en-1-one] | 28.5 ± 3.78 µM | > 100 µM | > 100 µM | 
> 100 µM | 92.8 to 93.6 °C |  | COc1ccccc1/C=C(\C)C(=O)c1ccc(Cl)c(Cl)c1 [Compound 3l, (E)-1-(3,4-Dichlorophenyl)-3-(2-methoxyphenyl)-2-methylprop-2-en-1-one] | 17.3 ± 2.24 µM | > 100 µM | 22.5 ± 1.36 µM | 
29.8 ± 0.98 µM | 70 to 71.1 °C |  | COc1ccc(/C=C(\C)C(=O)c2ccc(Cl)c(Cl)c2)cc1 [Compound 3m, (E)-1-(3,4-Dichlorophenyl)-3-(4-methoxyphenyl)-2-methylprop-2-en-1-one] | 35.1 ± 4.75 µM | > 100 µM | 67.7 ± 5.6 µM | 
> 100 µM | 184 to 184.8 °C |  | C/C(=C\c1ccc(N(C)C)cc1)C(=O)c1ccc(Cl)c(Cl)c1 [Compound 3n, (E)-1-(3,4-Dichlorophenyl)-3-(4-(dimethylamino)phenyl)-2-methylprop-2-en-1-one] | 23.4 ± 3.42 µM | > 100 µM | > 100 µM | 
> 100 µM | 186.7 to 190.8 °C |  | CCN(CC)c1ccc(/C=C(\C)C(=O)c2ccc(Cl)c(Cl)c2)cc1 [Compound 3o, (E)-1-(3,4-Dichlorophenyl)-3-(4-(diethylamino)phenyl)-2-methylprop-2-en-1-one] | 35 ± 4.93 µM | > 100 µM | > 100 µM | 
> 100 µM |  |  | CCN(CC)c1ccc(/C=C(\C)C(=O)c2ccc(Cl)cc2Cl)cc1 [Compound 3p, (E)-1-(2,4-Dichlorophenyl)-3-(4-(diethylamino)phenyl)-2-methylprop-2-en-1-one] | 41.4 ± 5.42 µM | > 100 µM | > 100 µM | 
10.4 ± 1.09 µM |  | 38.3 ± 4.57 µM | COc1cccc2c1C(=O)c1c(O)c3c(c(O)c1C2=O)C[C@@](O)(C(=O)CO)C[C@@H]3O[C@H]1C[C@H](N)[C@H](O)[C@H](C)O1 [Doxorubicin] |  |  |  | 3.68

— publication PMC10707934, “Design and Synthesis of Novel α-Methylchalcone Derivatives, Anti-Cervical Cancer Activity, and Reversal of Drug Resistance in HeLa/DDP Cells” (Molecules, 2023)
